Assay results from patent US20040137085A1, “Treatment of HIV infection with humic acid” (priority 1993, published 2004).

Experiments:
[1] = test system: Jurkat cells; test: Production of IL-2 by Jurkat T lymphoma cells; format: cell-based, human
Procedure: (§1) Typically, peripheral blood lymphocytes (PBL) from normal donors are incubated (2×10^6 cells/ml) in RPMI-1640 medium supplemented with 4 mM glutamine, 0.1 mM nonessential amino acids, 1 mM sodium pyruvate, 10 mM HEPES and 10% FCS and containing either Con A (5 μg/ml) or PHA (10 μg/ml) as the mitogen. AVC was added at the initiation of the culture at the dose of 12 μg/ml. The cultures were then incubated in a 5% CO2 atmosphere. Culture supernatants were collected on day 2, 3 and 4 and tested for the content (Units/ml) of IL-2 using a biological assay consisting in measuring the proliferative response of murine CTLL-2 T cells whose growth in culture is strictly dependent on the presence of IL-2 in the medium. The proliferative response (^3H-Thymidine incorporation) of CTLL-2 cells was plotted on a reference curve constructed with a standard amount of IL-2 and the experimental values calculated accordingly.
(§2) The effect on IL-2 production by AVC was not due to a direct proliferative effect on PBL in culture (Table IV) nor did it have a direct effect on IL-2 production by Jurkat or LBRM-33 T lymphoma cells (Table V).

[2] = test system: LBRM-33 Cells; test: Production of IL-2 by LBRM-33 T lymphoma cells; format: cell-based
Procedure: as §1, §2

[3] = test system: human PBL; test: Proliferation of human PBL; format: cell-based; design: unit not given here
Excerpt: as §2

For concanavalin A [Con A], the “Production of IL-2” value ([1]; 24 Hours) was 3,815, the “Production of IL-2” value ([1]; 48 Hours) was 10,061 and the “Production of IL-2” value ([2]; 24 Hours) was 28,774. For the same substance, the “Production of IL-2” value ([2]; 48 Hours) was 28,880, the “Proliferation of human PBL” value ([3]; Experiment 1, 24 Hours) was 3,772 and the “Proliferation of human PBL” value ([3]; Experiment 1, 48 Hours) was 37,839. For the same substance, the “Proliferation of human PBL” value ([3]; Experiment 1, 72 Hours) was 42,357, the “Proliferation of human PBL” value ([3]; Experiment 2, 24 Hours) was 182 and the “Proliferation of human PBL” value ([3]; Experiment 2, 48 Hours) was 23,767.
